Source: patent US9932352B2, “Compounds for the treatment of ischemia-reperfusion-related diseases” (MINERVA PATENTS S.A., priority 2012, dated 2018)

Key:
MKP-1 protein = assay: Induction of MKP-1 protein expression in PC12 cells (Western blotting); format: cell-based, rat; conditions: serum-free, NGF 10 ng/ml or compounds 10 μm, 30 minutes, WB densitometry
Description: PC12 cells were cultured in the absence of serum, exactly as described above in example 5, and then treated for 30 minutes with NGF, at the final concentration of 10 ng/ml, or alternatively with the compounds of formula (I), at the final concentration of 10 μm; subsequently, the cells were lysed, and analysed by WB, using antibodies specific for the MKP-1 protein.

p38 MAPK protein = assay: Dephosphorylation of p38 MAPK protein in serum-deprived PC12 cells (Western blotting); format: cell-based, rat; conditions: serum deprivation 6 hours, NGF 10 ng/ml or compounds 10 μm, 30 minutes, WB
Description: PC12 cells were cultured in the absence of serum, exactly as described above in example 5, and treated for 30 minutes with NGF, at the final concentration of 10 ng/ml, or alternatively with the compounds of formula I, at the final concentration of 10 μm; the cells were subsequently lysed and analysed by WB, using antibodies specific for the phosphorylated form of the enzyme.
A homogeneity control of protein load on gel, normalisation with β-actin is reported. (FIG. 3).

Murine cardiomyocytes = assay: Apoptosis induced by ROS after hypoxia/reperfusion, Annexin-V flow cytometry; format: cell-based; conditions: cells cultured in hypoxia, end of reperfusion period, vs controls
TrkA receptor = target: T1, TrkA receptor (Rattus norvegicus, UniProt P35739); assay: Autophosphorylation of the TrkA receptor in PC12 cells (Western blotting); format: cell-based; conditions: serum-free 6 hours, NGF 10 ng/ml or compounds 10 μm, 20 minutes, WB, ratio to total TrkA
T1 construct: Autophosphorylation of the TrkA receptor on PC12 cells when incubated with NGF or with a mimetic; endogenous in cells; host or cells: PC12 rat pheochromocytoma cells
T1 sequence (P35739 33-799): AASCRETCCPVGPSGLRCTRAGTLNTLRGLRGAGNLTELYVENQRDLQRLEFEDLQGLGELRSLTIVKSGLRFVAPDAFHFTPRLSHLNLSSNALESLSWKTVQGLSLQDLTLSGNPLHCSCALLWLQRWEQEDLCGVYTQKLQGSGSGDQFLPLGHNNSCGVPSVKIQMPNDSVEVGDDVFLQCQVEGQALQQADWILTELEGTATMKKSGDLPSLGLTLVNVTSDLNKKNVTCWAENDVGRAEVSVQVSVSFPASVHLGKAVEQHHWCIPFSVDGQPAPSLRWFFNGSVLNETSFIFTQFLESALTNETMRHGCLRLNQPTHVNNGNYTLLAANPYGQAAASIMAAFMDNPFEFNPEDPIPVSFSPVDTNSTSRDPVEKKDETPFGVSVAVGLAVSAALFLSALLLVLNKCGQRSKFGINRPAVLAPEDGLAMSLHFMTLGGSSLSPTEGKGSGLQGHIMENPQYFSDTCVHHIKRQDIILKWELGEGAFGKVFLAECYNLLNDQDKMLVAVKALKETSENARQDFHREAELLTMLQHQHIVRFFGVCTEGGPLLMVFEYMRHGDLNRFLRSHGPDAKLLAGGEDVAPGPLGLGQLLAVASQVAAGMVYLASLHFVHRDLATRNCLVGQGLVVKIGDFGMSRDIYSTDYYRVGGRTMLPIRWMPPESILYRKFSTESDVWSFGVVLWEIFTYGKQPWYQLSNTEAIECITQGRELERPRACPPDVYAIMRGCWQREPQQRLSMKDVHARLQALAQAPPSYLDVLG
Description: Cells of the continuous PC12 pheochromocytoma rat line were cultured at a concentration of 4×10^5/ml in RPMI 1640 medium, supplemented with 5% glutamine, antibiotics, and in the absence of serum, in 24-well plates for 6 hours. Subsequently, NGF at a final concentration of 10 ng/ml or alternatively the compounds of formula (I), at the final concentration of 10 μm, were added to these cultures. After 20 minutes, the cells were thus lysed in RIPA buffer (20 mM Tris-HCl, pH 7.5, 150 mM NaCl, 1 mM Na2 EDTA, 1 mM EGTA, 1% NP-40, 1% sodium deoxycholate, 25 mM sodium pyrophosphate, 1 mMβ-glycerophosphate, 1 mM Na3VO4, 1 μg/ml leupeptin) for biochemical analysis by means of Western blotting (WB) technique, using specific antibodies for the phosphorylated form of the tyrosines 490, 674/675 or 785.
The graphs show the phosphorylation values of the indicated tyrosines (Y490, Y674/675, Y785), expressed as the ratio of the intensities of the bands observed in WB, developed with the respective anti-phosphotyrosine antibodies, to the band relating to the total TrkA protein. It is clear that the mimetics very strongly induce the phosphorylation of Y490 and much less that of the other tyrosines.

NGF: recombinant human NGF, the native neurotrophin used as comparator at 10 ng/ml
MKP-1 protein levels (ratio MKP1 band to β-actin) (MKP-1 protein): significantly higher than the control | dephosphorylation of p38 MAPK (p38 MAPK protein): marked dephosphorylation of p38 MAPK | percentage of apoptotic cells (Annexin-V positive) (Murine cardiomyocytes): much lower percentage of apoptotic cells than the controls | phosphorylation of TrkA tyrosines 490, 674/675, 785 (TrkA receptor): invariably induced the phosphorylation of all tyrosines
